Assay results from patent US7727949B2, “Cleaning agent for thermostatic chambers” (Wako Pure Chemical Industries, Ltd., priority 2005, dated 2010).

Assays:
Format in all cases: cell-based
[1] = tested on: Penicillium citrinum (NBRC6352); experiment: Study of antimicrobial activity (MIC, agar plate medium)
Experimental: (§1) In a sterilized petri dish having a diameter of 90 mm, an aqueous solution which was obtained by diluting each of agents with distilled water such that a concentration of the agent become each predetermined concentrations when the solution is prepared to a total volume of 20 mL, and then sterilized water was added into the petri dish such that a total volume of sterilized water and the agent aqueous solution become 2 mL. Further, 18 mL of nutrient agar medium, which was sterilized with high pressure steam and preserved at 50° C.±2° C., was added into the petri dish, and it was solidified to obtain an agar plate medium.
(§2) The individual test microorganism, which was preliminarily cultured in bouillon medium in advance until 1×10^8 microorganisms/mL, was diluted with sterilized physiological saline for 100 times (to 1×10^6 microorganisms/mL). Next, prepared solution of the test microorganism was smeared with a platinum loop on the surface of the agar plate medium prepared in (2), and the medium was cultured at 35° C.±2° C., for 24 hours.
(§3) After the cultivation, confirming the presence or not of growth of the microorganism on the surface of the medium was conducted, a minimum concentration of the agent, where growth of the microorganisms cannot be recognized, was determined as the minimum inhibitory concentration (MIC, μg/mL) of the agent.

[2] = tested on: Aspergillus niger (NBRC6341); experiment: as above
Experimental: as §1, §2, §3

[3] = tested on: Escherichia coli (NBRC3972); experiment: as above
Experimental: as §1, §2, §3

[4] = tested on: Trichoderma viride (NBRC31831); experiment: as above
Experimental: as §1, §2, §3

[5] = tested on: Staphylococcus aureus (NBRC12732); experiment: as above
Experimental: as §1, §2, §3

[6] = tested on: Cladosporium cladosporioides (NBRC6348); experiment: as above
Experimental: as §1, §2, §3

[7] = tested on: Chaetomium globosum (NBRC6347); experiment: as above
Experimental: as §1, §2, §3

[8] = tested on: Bacillus subtilis (NBRC13719); experiment: as above
Experimental: as §1, §2, §3

[9] = tested on: Pseudonas aeruginosa (NBRC12689); experiment: as above
Experimental: as §1, §2, §3

[10] = tested on: Pseudonas aeruginosa (NBRC12689); experiment: Study of germicidal activity of agents in the presence of proteins; design: key to growth of the microorganism P.a: a case where growth of the microorganism on the surface of the medium was recognized is shown by +; a case where growth of the microorganism on the surface of the medium was not recognized is shown by −; conditions: agent 50 μg/mL
Experimental: (§4) Didecyldimethylammonium adipate (DDAA), N-bis(3-aminopropyl)dodecylamine (TAA) and benzalkonium chloride were respectively prepared such that a concentration thereof is 1 w/w %.
(§5) GOT solution: GOT Substrate-Enzyme solution and GOT•L2α-KG solution which were components of L type Wako GOT•J2 kit (produced by Wako Pure Chemical Industries, Ltd.) were prepared with distilled water so as to become a 0.1 w/w % aqueous solution.
(§6) GPT solution: GOT Substrate-Enzyme solution and GOT•L2α-KG solution which were components of L type Wako GPT•J2 kit (produced by Wako Pure Chemical Industries, Ltd.) were prepared with distilled water so as to become a 0.1 w/w % aqueous solution.
(§7) Serum: Control Serum II Wako (produced by Wako Pure Chemical Industries, Ltd.) was prepared with distilled water so as to become a 0.1 w/w % aqueous solution.
(§8) i) The individual test microorganism, which was preliminarily cultured in bouillon medium in advance until 1×10^8 microorganisms/mL, were diluted with sterilized physiological saline for 100 times (to 1×10^6 microorganisms/mL) to obtain a solution of test microorganisms. ii) Into a 20 mL test tube made of glass which was preliminarily sterilized by dry-heat sterilization, the agent aqueous solution, the reagent solution and the solution of test microorganisms as prepared in the above described i) were added such that a final concentration of the agent become 50 μg/mL, a final concentration of the reagent become 100 μg/mL, and the number of test microorganisms become 1×10^5 microorganisms/mL, respectively, when a total volume thereof is prepared to be 10 mL. And then, the tube was sufficiently stirred. iii) After a lapse of predetermined times (5 min, 10 min, and 15 min), the solution as obtained in the above described ii) was smeared with a platinum loop on the surface of the nutrient agar plate medium preliminarily having been prepared, and the medium was cultured at 35° C.±2° C. for 24 hours. iv) After the cultivation, confirming the presence or not of the growth of the microorganisms on the surface of the medium was conducted. (3) Result
(§9) In Table 3, a case where growth of the microorganism on the surface of the medium was recognized is shown by +, and a case where growth of the microorganism on the surface of the medium was not recognized is shown by −, respectively.

[11] = tested on: Staphylococcus aureus (NBRC12732); experiment: as above; design: key to growth of the microorganism S.a: a case where growth of the microorganism on the surface of the medium was recognized is shown by +; a case where growth of the microorganism on the surface of the medium was not recognized is shown by −; conditions: agent 50 μg/mL
Experimental: as §4, §5, §6, §7, §8, §9

[12] = tested on: Escherichia coli (NBRC3972); experiment: as above; design: key: a case where growth of the microorganism on the surface of the medium was recognized is shown by +; a case where growth of the microorganism on the surface of the medium was not recognized is shown by −; conditions: agent 50 μg/mL
Experimental: as §4, §5, §6, §7, §8, §9

[13] = tested on: Bacillus subtilis (NBRC13719); experiment: as above; design: key: a case where growth of the microorganism on the surface of the medium was recognized is shown by +; a case where growth of the microorganism on the surface of the medium was not recognized is shown by −; conditions: agent 50 μg/mL
Experimental: as §4, §5, §6, §7, §8, §9

## Didecyldimethylammonium adipate [DDAA]
[1]
  Minimum Inhibitory Concentration P.c: 400 µg/mL
[2]
  Minimum Inhibitory Concentration A.n: 400 µg/mL
[3]
  Minimum Inhibitory Concentration E.c: 100 µg/mL
[4]
  Minimum Inhibitory Concentration T.v: 200 µg/mL
[5]
  Minimum Inhibitory Concentration S.a: <1.563 µg/mL
[6]
  Minimum Inhibitory Concentration Cl.cl: 100 µg/mL
[7]
  Minimum Inhibitory Concentration C.g: 200 µg/mL
[8]
  Minimum Inhibitory Concentration B.s: <1.563 µg/mL
[9]
  Minimum Inhibitory Concentration P.a: 400 µg/mL
[10]; GOT, 5 min
  growth of the microorganism P.a: −
[10]; GOT, 10 min
  growth of the microorganism P.a: −
[10]; GOT, 15 min
  growth of the microorganism P.a: −
[10]; GPT, 5 min
  growth of the microorganism P.a: −
[10]; GPT, 10 min
  growth of the microorganism P.a: −
[10]; GPT, 15 min
  growth of the microorganism P.a: −
[10]; Serum, 5 min
  growth of the microorganism P.a: −
[10]; Serum, 10 min
  growth of the microorganism P.a: −
[10]; Serum, 15 min
  growth of the microorganism P.a: −
[11]; GOT, 5 min
  growth of the microorganism S.a: −
[11]; GOT, 10 min
  growth of the microorganism S.a: −
[11]; GOT, 15 min
  growth of the microorganism S.a: −
[11]; GPT, 5 min
  growth of the microorganism S.a: −
[11]; GPT, 10 min
  growth of the microorganism S.a: −
[11]; GPT, 15 min
  growth of the microorganism S.a: −
[11]; Serum, 5 min
  growth of the microorganism S.a: −
[11]; Serum, 10 min
  growth of the microorganism S.a: −
[11]; Serum, 15 min
  growth of the microorganism S.a: −
[12]; GOT, 5 min
  growth of the microorganism E.c: +
[12]; GOT, 10 min
  growth of the microorganism E.c: +
[12]; GOT, 15 min
  growth of the microorganism E.c: +
[12]; GPT, 5 min
  growth of the microorganism E.c: +
[12]; GPT, 10 min
  growth of the microorganism E.c: +
[12]; GPT, 15 min
  growth of the microorganism E.c: +
[12]; Serum, 5 min
  growth of the microorganism E.c: +
[12]; Serum, 10 min
  growth of the microorganism E.c: +
[12]; Serum, 15 min
  growth of the microorganism E.c: +
[13]; GOT, 5 min
  growth of the microorganism B.s: +
[13]; GOT, 10 min
  growth of the microorganism B.s: +
[13]; GOT, 15 min
  growth of the microorganism B.s: +
[13]; GPT, 5 min
  growth of the microorganism B.s: +
[13]; GPT, 10 min
  growth of the microorganism B.s: +
[13]; GPT, 15 min
  growth of the microorganism B.s: +
[13]; Serum, 5 min
  growth of the microorganism B.s: +
[13]; Serum, 10 min
  growth of the microorganism B.s: +
[13]; Serum, 15 min
  growth of the microorganism B.s: +

## benzalkonium chloride [BC, reference compound]
[1]
  Minimum Inhibitory Concentration P.c: 800 µg/mL
[2]
  Minimum Inhibitory Concentration A.n: 1,600 μg/mL
[3]
  Minimum Inhibitory Concentration E.c: 100 µg/mL
[4]
  Minimum Inhibitory Concentration T.v: 400 µg/mL
[5]
  Minimum Inhibitory Concentration S.a: 6.25 µg/mL
[6]
  Minimum Inhibitory Concentration Cl.cl: 200 µg/mL
[7]
  Minimum Inhibitory Concentration C.g: 400 µg/mL
[8]
  Minimum Inhibitory Concentration B.s: <1.563 µg/mL
[9]
  Minimum Inhibitory Concentration P.a: 800 µg/mL
[10]; GOT, 5 min
  growth of the microorganism P.a: +
[10]; GOT, 10 min
  growth of the microorganism P.a: +
[10]; GOT, 15 min
  growth of the microorganism P.a: +
[10]; GPT, 5 min
  growth of the microorganism P.a: +
[10]; GPT, 10 min
  growth of the microorganism P.a: +
[10]; GPT, 15 min
  growth of the microorganism P.a: +
[10]; Serum, 5 min
  growth of the microorganism P.a: +
[10]; Serum, 10 min
  growth of the microorganism P.a: +
[10]; Serum, 15 min
  growth of the microorganism P.a: +
[11]; GOT, 5 min
  growth of the microorganism S.a: −
[11]; GOT, 10 min
  growth of the microorganism S.a: −
[11]; GOT, 15 min
  growth of the microorganism S.a: −
[11]; GPT, 5 min
  growth of the microorganism S.a: −
[11]; GPT, 10 min
  growth of the microorganism S.a: −
[11]; GPT, 15 min
  growth of the microorganism S.a: −
[11]; Serum, 5 min
  growth of the microorganism S.a: +
[11]; Serum, 10 min
  growth of the microorganism S.a: +
[11]; Serum, 15 min
  growth of the microorganism S.a: +
[12]; GOT, 5 min
  growth of the microorganism E.c: +
[12]; GOT, 10 min
  growth of the microorganism E.c: +
[12]; GOT, 15 min
  growth of the microorganism E.c: +
[12]; GPT, 5 min
  growth of the microorganism E.c: +
[12]; GPT, 10 min
  growth of the microorganism E.c: +
[12]; GPT, 15 min
  growth of the microorganism E.c: +
[12]; Serum, 5 min
  growth of the microorganism E.c: +
[12]; Serum, 10 min
  growth of the microorganism E.c: +
[12]; Serum, 15 min
  growth of the microorganism E.c: +
[13]; GOT, 5 min
  growth of the microorganism B.s: +
[13]; GOT, 10 min
  growth of the microorganism B.s: +
[13]; GOT, 15 min
  growth of the microorganism B.s: +
[13]; GPT, 5 min
  growth of the microorganism B.s: +
[13]; GPT, 10 min
  growth of the microorganism B.s: +
[13]; GPT, 15 min
  growth of the microorganism B.s: +
[13]; Serum, 5 min
  growth of the microorganism B.s: +
[13]; Serum, 10 min
  growth of the microorganism B.s: +
[13]; Serum, 15 min
  growth of the microorganism B.s: +
